Here are results for 16 compounds from ChEMBL document CHEMBL2375331, “Daphnane-type diterpenes with inhibitory activities against human cancer cell lines from Daphne genkwa” (Bioorg Med Chem Lett, 2013).

Holding throughout (assay type): functional, cell-based
Test [1] relates to HT-1080. As to the kind of experiment: Cytotoxicity against human HT1080 cells after 48 hrs by MTT assay. The settings on record: HT-1080, 48 h. For orientation: Tetrazolium dyes change colour on reduction, which living cells bring about.
Test [2] relates to U-937. As to the kind of experiment: Cytotoxicity against human U937 cells after 48 hrs by MTT assay. The following applies: U-937, 48 h.
The test system of test [3] is HL-60. As to the kind of experiment: Cytotoxicity against human HL60 cells after 48 hrs by MTT assay. The settings on record: HL-60, 48 h.
In test [4] the test system is MCF7. As to the kind of experiment: Cytotoxicity against human MCF7 cells after 48 hrs by MTT assay. The following applies: MCF7, 48 h.
In test [5] the test system is HCT-116. As to the kind of experiment: Cytotoxicity against human HCT116 cells after 48 hrs by MTT assay. The settings on record: HCT-116, 48 h.
Test [6] deals with K562. As to the kind of experiment: Cytotoxicity against human K562 cells after 48 hrs by MTT assay. The following applies: K562, 48 h.
The test system of test [7] is HeLa. As to the kind of experiment: Cytotoxicity against human HeLa cells after 48 hrs by MTT assay.
Test [8] deals with HepG2. As to the kind of experiment: Cytotoxicity against human HepG2 cells after 48 hrs by MTT assay. The settings on record: HepG2, 48 h.
A short description of test [9]: Cytotoxicity against human A375-S2 cells after 48 hrs by MTT assay. The settings on record: A375-S2, 48 h.
The subject of test [10] is A549. As to the kind of experiment: Cytotoxicity against human A549 cells after 48 hrs by MTT assay. The settings on record: A549, 48 h.

Some results are limits rather than exact numbers.

With `C=C(C)[C@@]12OC3(c4ccccc4)O[C@@H]1[C@@H]1[C@H](O)[C@](O)(CO)[C@@H](O)[C@]4(O)C(=O)[C@@H](C)C=C4[C@@]1(O3)[C@H](C)[C@H]2OC(=O)c1ccccc1`, the IC50 in [1] was 16.1 µM; in test [2], 29.9 µM; in test [3], 27.7 µM; in test [4], 33.7 µM; in [5] it was above 50 µM; in test [6] it was 46.9 µM. For the same compound, the IC50 in [7] was determined as 24.8 µM; in [8] it was 27.9 µM; in [9], 14.3 µM; in test [10], 26.9 µM.

For the compound `C=C(C)[C@]12C[C@@H](C)[C@@]34O[C@@]5(CCCCCCC[C@@H](C)[C@H]6[C@H](C)[C@H](O)[C@@](O)([C@H](O)[C@@]7(COC(=O)c8ccccc8)O[C@H]7[C@H]3[C@H]1O5)[C@@H]64)O2`, the 50% inhibitory concentration (IC50) stood at 9.56 µM in [1]; 16.5 µM in test [2]; 18.1 µM in [3]; 19.9 µM in test [4]; 28.9 µM in [5]; 18.7 µM in test [6]. Further, the IC50 in test [7] was above 50 µM; in [8] it was 11.3 µM; in test [9], 29.4 µM; in test [10], 18.8 µM.

For `C=C(C)[C@]12C[C@@H](C)[C@@]34OC5(CCCCCCC[C@@H](C)[C@H]6[C@H](C)[C@H](O)[C@@](O)([C@H](O)[C@@](O)(COC(=O)c7ccccc7)[C@@H](O)[C@H]3[C@H]1O5)[C@@H]64)O2`, the IC50 in test [1] was 7.71 µM; in [2], above 50 µM; in test [3] it was above 50 µM; in [4], above 50 µM; in test [5], above 50 µM; in test [6] it was above 50 µM. Further, the IC50 in test [7] was determined as 25.2 µM; in test [8], 28.6 µM; in test [9] it was 28.6 µM; in test [10], 45 µM.

`C=C(C)[C@@]12OC3(/C=C/C=C/CCCCC)O[C@@H]1[C@@H]1[C@@H]4O[C@]4(CO)[C@@H](O)[C@]4(O)C(=O)C(C)=C[C@H]4[C@@]1(O3)[C@H](C)[C@H]2OC(=O)C(C)C`: the IC50 in test [1] came to 4.55 µM; in test [2], 27.6 µM; in [3], 30 µM; in [4], 20.8 µM; in test [5], 25.2 µM; in [6], 5.11 µM. In addition, the IC50 in test [7] was above 50 µM; in test [8] it was 17.8 µM; in [9] it was 24.9 µM; in test [10] it was 23.1 µM.

With `C=C(C)[C@]12C[C@@H](C)[C@]34OC5(CCCCCCC[C@H](C)[C@@H]6[C@@H]3[C@]3(O[C@]6(C)OC3=O)[C@H](O)[C@@]3(CO)O[C@H]3[C@H]4[C@H]1O5)O2`, the IC50 in test [1] is 0.83 µM; in test [2], above 50 µM; in test [3], above 50 µM; in test [4], 20.3 µM; in test [5], 36 µM; in [6] it was above 50 µM. Further, the IC50 was 28.1 µM in test [7], 28.1 µM in test [8], above 50 µM in [9] and 35.7 µM in [10].

Regarding `C=C(C)[C@]12C[C@@H](C)[C@]34OC5(CCCCCCC[C@@H](C)[C@@H]6[C@@H]3[C@]3(O[C@]6(C)OC3=O)[C@H](O)[C@@]3(CO)O[C@H]3[C@H]4[C@H]1O5)O2`, the IC50 in test [1] was 20.8 µM; in [2], 22.9 µM; in test [3], 34.1 µM; in [4], 7.36 µM; in [5], 26.5 µM; in [6] it was 26.3 µM. For the same compound, the IC50 is 23.2 µM in test [7], 25.2 µM in test [8], 23 µM in test [9] and above 50 µM in test [10].

Turning to `C=C(C)[C@@]12O[C@@]3(c4ccccc4)O[C@@H]1[C@@H]1[C@@H]4O[C@]4(CO)[C@@H](O)[C@]4(O)C(=O)C(C)=C[C@H]4[C@@]1(O3)[C@H](C)[C@H]2OC(C)=O`, the IC50 in [1] was below 0.1 µM; in [2], above 50 µM; in test [3], above 50 µM; in test [4] it was above 50 µM; in [5], 37.5 µM; in test [6], above 50 µM. Further, the IC50 is 42.4 µM in [7], above 50 µM in test [8], above 50 µM in test [9] and above 50 µM in [10].

As for `C=C(C)[C@@]12O[C@@]3(c4ccccc4)O[C@@H]1[C@@H]1[C@@H]4O[C@]4(CO)[C@@H](O)[C@]4(O)C(=O)C(C)=C[C@H]4[C@@]1(O3)[C@H](C)[C@H]2OC(=O)c1ccccc1`, the IC50 in [1] is below 0.1 µM; in test [2], 13.2 µM; in test [3], 24.4 µM; in test [4], 2.36 µM; in test [5], 29.3 µM; in test [6] it was 22.5 µM. Also, the IC50 was 19.1 µM in [7], 24.1 µM in test [8], 16.9 µM in test [9] and 19.1 µM in [10].

Take `C=C(C)[C@@]12OC3(/C=C/C=C/CCCCC)O[C@@H]1[C@@H]1[C@@H]4O[C@]4(CO)[C@@H](O)[C@]4(O)C(=O)C(C)=C[C@H]4[C@@]1(O3)[C@H](C)[C@H]2OC(=O)CC`: the IC50 was 28.8 µM in [1]; 27.4 µM in test [2]; 22.7 µM in test [3]; above 50 µM in test [4]; 46.8 µM in test [5]; 29.4 µM in test [6]. Moreover, the IC50 is 25.5 µM in test [7], 13.5 µM in test [8], above 50 µM in [9] and 18.8 µM in test [10].

In the case of `C=C(C)[C@@]12O[C@@]3(c4ccccc4)O[C@@H]1[C@@H]1[C@@H]4O[C@]4(CO)[C@@H](O)[C@]4(O)C(=O)[C@@H](C)C[C@H]4[C@@]1(O3)[C@H](C)[C@H]2OC(C)=O`, the IC50 in test [1] was below 0.1 µM; in test [2] it was above 50 µM; in test [3], above 50 µM; in test [4], 23.6 µM; in test [5], above 50 µM; in test [6] it was above 50 µM. In addition, the IC50 was 50 µM in test [7], above 50 µM in [8], 14.2 µM in test [9] and above 50 µM in test [10].

On to `C=C(C)[C@@]12O[C@@]3(c4ccccc4)O[C@@H]1[C@@H]1[C@@H]4O[C@]4(CO)[C@@H](O)[C@]4(O)C(=O)[C@@H](C)C[C@H]4[C@@]1(O3)[C@H](C)[C@H]2OC(=O)c1ccccc1`, for which the IC50 came to 14.3 µM in test [1]; 12.3 µM in [2]; 26 µM in test [3]; 0.37 µM in test [4]; 24.9 µM in [5]; 24.6 µM in [6]. The IC50 in test [7] was 20.3 µM; in test [8] it was 24.1 µM; in test [9], 9.31 µM; in test [10], 12.5 µM.

On to `C=C(C)[C@]12C[C@@H](C)[C@@]34OC(c5ccccc5)(OC1[C@@H]3[C@@H]1O[C@]1(COC(=O)c1ccccc1)[C@@H](O)[C@@]1(O)[C@H]4C[C@H](C)[C@@H]1O)O2`, for which the IC50 in test [1] is below 0.1 µM; in [2], 18.1 µM; in test [3], 30.9 µM; in test [4] it was 25.3 µM; in test [5], 28.1 µM; in test [6], 20.2 µM. In addition, the IC50 in [7] worked out at 20.2 µM; in test [8], 29.9 µM; in [9], 3.62 µM; in test [10], 23.4 µM.

For `C=C(C)[C@]12C[C@@H](C)[C@@]34OC(c5ccccc5)(O[C@@H]1[C@@H]3[C@H](O)[C@](O)(COC(=O)/C=C/C=C/CCCCC)[C@@H](O)[C@@]1(O)[C@H]4C[C@H](C)[C@@H]1O)O2`, the IC50 in test [1] was 29.9 µM; in test [2], 23.8 µM; in [3] it was 20.5 µM; in [4] it was above 50 µM; in test [5], 27.4 µM; in [6], 24.2 µM. The IC50 in test [7] turned out to be 26.2 µM; in test [8], 22.7 µM; in [9], 25.4 µM; in [10] it was 22.3 µM.

With `C=C(C)[C@]1(O)C[C@@H](C)[C@@]2(O)[C@H]([C@H]1OC(=O)c1ccccc1)[C@H](O)[C@](O)(COC(=O)/C=C/C=C/CCCCC)[C@@H](O)[C@@]1(O)[C@H]2C[C@H](C)[C@@H]1O`, the IC50 in test [1] was 22.9 µM; in test [2] it was 15.6 µM; in test [3], 10.1 µM; in [4], above 50 µM; in [5], 35.8 µM; in [6], 24.5 µM. In addition, the IC50 in [7] was determined as 21.1 µM; in test [8], 17.9 µM; in [9], 23.7 µM; in [10] it was 20.9 µM.

With `O=c1[nH]cc(F)c(=O)[nH]1` [FLUOROURACIL], the IC50 in [1] was 35.6 µM; in test [2], 23.9 µM; in test [3], 10.1 µM; in test [4], 11.5 µM; in test [5] it was 27.8 µM; in test [6], 23.6 µM. Besides, the IC50 in test [7] came to 7.34 µM; in test [8], 40.3 µM; in test [9] it was 6.67 µM; in test [10] it was 44.1 µM.

As for `C=C(C)[C@@]12O[C@@]3(/C=C/C=C/CCCCC)O[C@@H]1[C@@H]1[C@@H]4O[C@]4(CO)[C@@H](O)[C@]4(O)C(=O)C(C)=C[C@H]4[C@@]1(O3)[C@H](C)[C@H]2OC(=O)c1ccccc1` [GNIDILATIDIN], the IC50 worked out at 2.02 µM in [1]; 11.8 µM in test [2]; 26.8 µM in [3]; 2.39 µM in [4]; 23 µM in [5]; 16.1 µM in [6]. Further, the IC50 in [7] amounted to 5.56 µM; in test [8], 8.04 µM; in test [9], 8.72 µM; in [10], 13.1 µM.

By IC50 is commonly meant the concentration that gives 50% inhibition.
